{"source": "patent US8350049B2", "about": "“Immobilized 1,2-benzisothiazolin-3-one” (priority 2006, dated 2013)", "key": {"[1]": {"details": "ambient temperature; cited from earlier work"}, "[2]": {"system": "Pseudomonas aeruginosa DSM 939", "experiment": "JIS Z2801 test, interior acrylic wall paint of example 15", "assay_type": "cell-based", "details": "contact time 8 hrs; active conc. 0.05%", "procedure": "(§1) The complex was coated on to Leneta Scrub Resistance test panels, with a dry film thickness of 200 micrometers, with a foam roller allowing a drying time of 18 hours between coats. The panels were equilibrated in the dark for 7 days. Subsamples were cut (each 50 mm×50 mm). The samples were inoculated with a suspension of the test bacteria and then incubated in chambers (1 per species) at 20° C. and 65% relative humidity.\nThe activity of the immobilized BIT/ZnO complex from Example 8 as a dry-film bactericide against Pseudomonas aeruginosa DSM 939 was determined in the paint described in example 15 according to the JIS Z2801 test. The microbiological test was performed according to the procedure described in to Example 16."}, "[3]": {"system": "Escherichia coli", "experiment": "JIS Z2801 test after 24 h water leaching (severe environmental conditions), interior flat paint", "assay_type": "cell-based", "details": "specimens leached in water 24 hours; contact time 24 hrs; active conc. 0.05%", "procedure": "as §1\nThe activity of the immobilized BIT/ZnO complex from Example 8 as a dry-film bactericide after artificial aging against Escherichia coli was determined in ICI UK, Diamond Matt paint, a commercially available water-based interior flat paint (40% acrylic binder) according to the JIS Z2801 test. The paint specimens were prepared as described in example 19. The microbiological test was performed according to the procedure described in Example 16. After equilibration, the specimens were leached in water (24 hours) to simulate use conditions in a severe environment. The paint film was cleaned by water jet."}, "[4]": {"system": "Pseudomonas aeruginosa DSM 939", "experiment": "JIS Z2801 test after 24 h water leaching (severe environmental conditions), paint of example 15", "assay_type": "cell-based", "details": "specimens leached in water 24 hours; contact time 24 hrs; active conc. 0.05%", "procedure": "as §1\nThe activity of the immobilized BIT/ZnO complex from Example 8 as a dry-film bactericide after aging against Pseudomonas aeruginosa DSM 939 was determined in the paint described in example 15 according to the JIS Z2801 test. The microbiological test was performed according to the procedure described in Example 16. After equilibration, the specimens were leached in water (24 hours) to simulate use conditions in a severe environment. The paint film was cleaned by water jet."}, "[5]": {"system": "Pseudomonas aeruginosa DSM 939", "experiment": "JIS Z2801:2000 (E) test, water-based interior flat paint", "assay_type": "cell-based", "details": "contact time 8 hrs; active conc. 0.05%", "procedure": "as §1\nThe activity of the immobilized BIT/ZnO complex from Example 8 as a dry-film bactericide against Pseudomonas aeruginosa DSM 939 was determined in ICI UK, Diamond Matt paint, a commercially available water-based interior flat paint (40% acrylic binder) according to the JIS Z2801:2000 (E) test. The microbiological test was performed according to the procedure described in Example 16."}, "[6]": {"system": "Escherichia coli", "experiment": "JIS Z2801:2000 (E) test, water-based interior flat paint", "assay_type": "cell-based", "details": "contact time 8 hrs; active conc. 0.05%", "procedure": "The activity of the immobilized BIT/ZnO complex from Example 9 as a dry-film bactericide against Escherichia coli was determined in ICI UK, Diamond Matt is paint, a commercially available water-based interior flat paint (40% acrylic binder) according to the JIS Z2801:2000 (E) test (Japanese Industrial Standard Z2801:2000 (E) test, Antimicrobial products—Test for antimicrobial activity and efficacy).\nas §1\nSwabs were employed for recovery of the bacteria. From the blank sample 1.8×10^5 cfu/cm^2 were recovered. This number was taken as the starting bacterial load on the surface."}, "[7]": {"system": "Pseudomonas aeruginosa DSM 939", "experiment": "Dry-film bactericide test, modified Swiss Standard SNV195120, water-based interior eggshell paint", "assay_type": "cell-based", "parameters": "key: 0H: No bacterial growth under the specimen, inhibition zone on the nutrient.; 0: No growth of bacteria under the specimen.; Growth of bacteria under the specimen", "procedure": "The activity of the immobilized BIT/ZnO complex from Example 8 as a dry-film bactericide against Pseudomonas aeruginosa DSM 939 was determined in a commercially available water-based interior eggshell paint (40% acrylic binder with an adhesion promoter) according to the modified Swiss Standard SNV195120. The composition of the paint, which is typically applied in wet rooms, is set out below.\nThe microbiological test was performed according to the procedure described in Example 14."}, "[8]": {"system": "Pseudomonas aeruginosa DSM 939", "experiment": "Dry-film bactericide test, modified Swiss Standard SNV195120, water-based interior flat paint", "assay_type": "cell-based", "procedure": "The activity of the immobilized BIT/ZnO complex from Example 8 as a dry-film bactericide against Pseudomonas aeruginosa DSM 939 was determined in an ICI UK, Diamond Matt paint, a commercially available water-based interior flat paint (40% acrylic binder) according to the modified Swiss Standard SNV195120, which is described below\nThe immobilized BIT/ZnO complex from example 8 was incorporated into the water-based interior flat paint at the levels shown in the Table below. The paints were allowed to equilibrate for one week at room temperature.\nA quantity of 50 mg of the BIT/ZnO complex was mixed with 100 g of the paint (resulting in 0.05% of the specimen 1 in the table below, the other specimens were prepared accordingly). Round filter papers (5.5 cm diameter) were coated with the test material to a thickness of 150 g/m2 wet and the resulting specimens dried at room temperature.\nOne half of the test specimen was leached by tap water (9 liters per m^2) in a beaker. The specimens were dried at room temperature and sterilized by gamma radiation from a cobalt 60 source (25 kGy). In the microbiological test, Pseudomonas aeruginosa DSM 939 was used as the bacteria source.\nLiquid cultures of each bacterial strain were incubated over night at appropriate temperatures and then diluted 1:100,000 to result in a count of 10^4 cfu per ml. […]"}}}
{"molecule": "O=c1[nH]sc2ccccc12", "note": "[BIT, 1,2-benzisothiazolin-3-one]", "values": [{"measurement": "solubility of BIT in methanol", "setting": "[1]", "result": "greater than 5%"}]}
{"molecule": "Zinc Pyrithione [ZPT]", "values": [{"measurement": "Kill rate % related to blank paint", "setting": "[2]", "result": 39.5, "unit": "%"}, {"measurement": "Log (Cfu/cm^2)", "setting": "[2]", "result": "4.66 Log (Cfu/cm^2)"}, {"measurement": "Kill rate % related to blank paint", "setting": "[3]", "result": 20, "unit": "%"}, {"measurement": "Log (Cfu/cm^2)", "setting": "[3]", "result": "3.04 Log (Cfu/cm^2)"}, {"measurement": "Kill rate % related to blank paint", "setting": "[4]", "result": 85.5, "unit": "%"}, {"measurement": "Log (Cfu/cm^2)", "setting": "[4]", "result": "3.04 Log (Cfu/cm^2)"}, {"measurement": "Kill rate % related to blank paint", "setting": "[5]", "result": 69.40, "unit": "%"}, {"measurement": "Log (Cfu/cm^2)", "setting": "[5]", "result": "4.18 Log (Cfu/cm^2)"}, {"measurement": "Kill rate % related to blank paint", "setting": "[6]", "result": 96.4, "unit": "%"}, {"measurement": "Log (Cfu/cm^2)", "setting": "[6]", "result": "3.76 Log (Cfu/cm^2)"}]}
{"molecule": "CN(C)C(=S)SSC(=S)N(C)C", "note": "[Thiram, tetramethylthiuram disulfide]", "values": [{"measurement": "Psa unleached", "setting": "[7]; active conc. 0.1%", "result": "G"}, {"measurement": "Psa leached 24 h", "setting": "[7]; active conc. 0.1%", "result": "G"}, {"measurement": "Psa unleached", "setting": "[7]; active conc. 0.2%", "result": "G"}, {"measurement": "Psa leached 24 h", "setting": "[7]; active conc. 0.2%", "result": "G"}, {"measurement": "Psa unleached", "setting": "[8]; active conc. 0.1%", "result": 0}, {"measurement": "Psa unleached", "setting": "[8]; active conc. 0.2%", "result": 0}]}
